{
  "source": "patent US12268707B2",
  "about": "“Treatment for coronavirus infection and associated cytokine toxicity” (priority 2020, dated 2025)",
  "key": {"SARS-CoV-2": {"tested_on": "SARS-CoV-2", "format": "cell-based"}, "[1]": {"conditions": "fraction of heparin's anticoagulant properties; cited from earlier work"}, "[2]": {"conditions": "high doses for extended periods; cited from earlier work"}, "[3]": {"conditions": "administered orally, intravenously or subcutaneously; cited from earlier work"}},
  "note": "Values joined by “and” are separate entries in the source; they are usually repeats but may differ in a detail not shown here. Identical values can stand only once.",
  "data": [
    {"substance": "pentosan polysulfate [PPS]", "values": [
      {"measurement": "reduction in virus infectivity (TCID50/mL)", "setting": "SARS-CoV-2", "value": "almost four orders of magnitude reduction"},
      {"measurement": "virus replication in Calu3 cells", "setting": "SARS-CoV-2", "value": "inhibited much more strongly"},
      {"measurement": "anticoagulant properties relative to heparin", "setting": "[1]", "value": "about 1/15 and 1/15"},
      {"measurement": "side effects", "setting": "[2]", "value": "only limited side effects"},
      {"measurement": "bioavailability", "setting": "[3]", "value": "bioavailable"}
    ]}
  ]
}
